# Assay results from patent US8992982B2, “Formulation of indomethacin” (Iceutica Pty Ltd., priority 2009, dated 2015).
# Tested on: pain after surgical removal of impacted third molars
# Experiment: Phase 2 dental pain study: pain relief, 5-point categorical scale (TOTPAR, pain relief score, peak pain relief, time to peak pain relief)
# Type: in vivo, human
# Settings: for Pain relief score A Little (1), % / Pain relief score None (0), % / Pain relief score Some (2), % / Pain relief score A Lot (3), % / Pain relief score Complete (4), %: 400 mg; for TOTPAR-8, LS mean difference vs placebo: treatment - placebo
# Experimental: This was a phase-2, multicenter, randomized, double-blind, single-dose, parallel-group, active- and placebo-controlled study to evaluate the efficacy and safety of Indomethacin Nanoformulation Capsules (20 mg and 40 mg) in subjects with postoperative dental pain.
# On Day 1, eligible subjects underwent extraction of 2 or more third molars, at least 1 of which had to be a fully or partially bone-impacted mandibular molar. If only 2 molars were removed, then they had to be ipsilateral.
# Subjects assessed their baseline pain intensity (VAS) before receiving study drug (predose, Time 0) and their pain intensity (VAS) and pain relief (5-point categorical scale) at 15, 30, and 45 minutes and 1, 1.5, 2, 3, 4, 5, 6, 7, and 8 hours after Time 0 and immediately before the first dose of rescue medication. The 2-stopwatch method was used to record the time to perceptible and time to meaningful pain relief, respectively. Acetaminophen (1000 mg) was permitted as the initial rescue medication. Subjects were encouraged to wait at least 60 minutes after receiving study drug before taking rescue medication. […] Other restrictions included the following: no alcohol use from 24 hours before surgery until discharge on Day 1; nothing by mouth (NPO) from midnight before surgery until 1 hour after surgery; clear liquids only from 1 hour after surgery until 1 hour after dosing; and advancement of diet 1 hour after dosing according to standard practice.
# The primary efficacy endpoint was the sum of total pain relief (TOTPAR) over 0 to 8 hours (TOTPAR-8) after Time 0. The TOTPAR was calculated using the pain relief score (5-point categorical scale) at each follow-up time point weighted (multiplied) using the amount of time since the prior assessment.
# The secondary efficacy endpoints were as follows: • TOTPAR over 0 to 4 hours (TOTPAR-4) after Time 0 • Visual Analogue Scale (VAS) pain intensity difference (VASPID) at each scheduled time point after Time 0 • Time to onset of analgesia (measured as time to perceptible pain relief confirmed by meaningful pain relief) • VAS pain intensity score at each scheduled time point • VAS summed pain intensity difference (VASSPID) over 0 to 4 hours (VASSPID-4) and over 0 to 8 hours (VASSPID-8) after Time 0 • Pain relief score at each scheduled time point after Time 0 • Peak pain relief • Time to peak pain relief • Time to first perceptible pain relief • Time to meaningful pain relief • Proportion of subjects using rescue medication • Time to first use of rescue medication (duration of analgesia) • Patient's global evaluation of study drug Safety:
# The null hypothesis was that TOTPAR over 0 to 8 hours after Time 0 (TOTPAR-8) for placebo would be equal to TOTPAR-8 for 40-mg Indomethacin Nanoformulation Capsules. The null hypothesis was analyzed using analysis of covariance (ANCOVA) models, which included treatment effect and significant covariates. The effect of potential covariates, such as sex, baseline pain intensity, and surgical trauma rating, were assessed using appropriate ANCOVA models. The analysis was based on a 2-sided test at the significance level of 0.05.
# The least squares (LS) mean and 95% confidence interval (CI) for each treatment regimen, the mean (LS mean) difference between the 2 treatments, and the associated P value and 95% CI for the mean difference were computed from the ANCOVA model. This analysis utilized primarily the ITT population, and sensitivity analysis utilized the PP population.
# Other comparisons between the treatment regimens, including 20-mg Indomethacin Nanoformulation Capsules versus placebo and 400-mg celecoxib capsules versus placebo, were considered secondary but also utilized the ITT population. The primary efficacy variable was also summarized by site, but no P values or statistical tests for site were computed.
# Each efficacy endpoint was summarized descriptively by treatment group. […]
smiles,measurement,setting,value
Cc1ccc(-c2cc(C(F)(F)F)nn2-c2ccc(S(N)(=O)=O)cc2)cc1 [Celecoxib],"Pain relief score A Little (1), %","15 minutes, ITT",(21.6) %
same,"Pain relief score None (0), %","15 minutes, ITT",(74.5) %
same,"Pain relief score Some (2), %","15 minutes, ITT",(3.9) %
same,"Pain relief score A Little (1), %","30 minutes, ITT",(41.2) %
same,"Pain relief score A Lot (3), %","30 minutes, ITT",(3.9) %
same,"Pain relief score None (0), %","30 minutes, ITT",(51.0) %
same,"Pain relief score Some (2), %","30 minutes, ITT",(3.9) %
same,"Pain relief score A Little (1), %","45 minutes, ITT",(37.3) %
same,"Pain relief score A Lot (3), %","45 minutes, ITT",(13.7) %
same,"Pain relief score Complete (4), %","45 minutes, ITT",(2.0) %
same,"Pain relief score None (0), %","45 minutes, ITT",(27.5) %
same,"Pain relief score Some (2), %","45 minutes, ITT",(19.6) %
same,"Pain relief score A Little (1), %","1 hour, ITT",(31.4) %
same,"Pain relief score A Lot (3), %","1 hour, ITT",25.5%
same,"Pain relief score Complete (4), %","1 hour, ITT",(3.9) %
same,"Pain relief score None (0), %","1 hour, ITT",(15.7) %
same,"Pain relief score Some (2), %","1 hour, ITT",(23.5) %
same,"Pain relief score A Little (1), %","2 hours, ITT",(13.7) %
same,"Pain relief score A Lot (3), %","2 hours, ITT",(49.0) %
same,"Pain relief score Complete (4), %","2 hours, ITT",(5.9) %
same,"Pain relief score None (0), %","2 hours, ITT",(17.6) %
same,"Pain relief score Some (2), %","2 hours, ITT",(13.7) %
same,"Pain relief score A Little (1), %","3 hours, ITT",(5.9) %
same,"Pain relief score A Lot (3), %","3 hours, ITT",(51.0) %
same,"Pain relief score Complete (4), %","3 hours, ITT",(5.9) %
same,"Pain relief score None (0), %","3 hours, ITT",(21.6) %
same,"Pain relief score Some (2), %","3 hours, ITT",(15.7) %
same,"Pain relief score A Little (1), %","4 hours, ITT",(7.8) %
same,"Pain relief score A Lot (3), %","4 hours, ITT",(49.0) %
same,"Pain relief score Complete (4), %","4 hours, ITT",(9.8) %
same,"Pain relief score None (0), %","4 hours, ITT",(27.5) %
same,"Pain relief score Some (2), %","4 hours, ITT",(5.9) %
same,"Pain relief score A Little (1), %","5 hours, ITT",(3.9) %
same,"Pain relief score A Lot (3), %","5 hours, ITT",(43.1) %
same,"Pain relief score Complete (4), %","5 hours, ITT",(11.8) %
same,"Pain relief score None (0), %","5 hours, ITT",(31.4) %
same,"Pain relief score Some (2), %","5 hours, ITT",(9.8) %
same,"Pain relief score A Little (1), %","6 hours, ITT",(2.0) %
same,"Pain relief score A Lot (3), %","6 hours, ITT",(37.3) %
same,"Pain relief score Complete (4), %","6 hours, ITT",(17.6) %
same,"Pain relief score None (0), %","6 hours, ITT",(37.3) %
same,"Pain relief score Some (2), %","6 hours, ITT",(5.9) %
same,"Pain relief score A Lot (3), %","7 hours, ITT",(43.1) %
same,"Pain relief score Complete (4), %","7 hours, ITT",(13.7) %
same,"Pain relief score None (0), %","7 hours, ITT",(41.2) %
same,"Pain relief score Some (2), %","7 hours, ITT",(2.0) %
same,"Pain relief score A Lot (3), %","8 hours, ITT",(41.2) %
same,"Pain relief score Complete (4), %","8 hours, ITT",(13.7) %
same,"Pain relief score None (0), %","8 hours, ITT",(41.2) %
same,"Pain relief score Some (2), %","8 hours, ITT",(3.9) %
same,"Time to peak pain relief, Hazard ratio","Cox proportional hazards model, vs placebo, ITT",1.8
same,Peak pain relief: A Little (1),ITT,(11.8) %
same,Peak pain relief: A Lot (3),ITT,(47.1) %
same,Peak pain relief: Complete (4),ITT,(21.6) %
same,Peak pain relief: None (0),ITT,(7.8) %
same,Peak pain relief: Some (2),ITT,(11.8) %
same,Time to peak pain relief: subjects analyzed,ITT,(58.8) %
same,Time to peak pain relief: subjects censored,ITT,(41.2) %
same,"TOTPAR-4, Mean",ITT population,7.152
same,"TOTPAR-4, Median",ITT population,8.750
same,"Time to peak pain relief, Mean","Kaplan-Meier estimate, ITT",3.3 h
same,"Time to peak pain relief, Q25","Kaplan-Meier estimate, ITT",1.50 h
same,"Time to peak pain relief, Q50","Kaplan-Meier estimate, ITT",3.00 h
same,"Time to peak pain relief, Q75","Kaplan-Meier estimate, ITT",5.00 h
same,"TOTPAR-8, LS mean","Model 1 (primary): ANCOVA, baseline pain intensity as only covariate, ITT",14.822
same,"TOTPAR-8, LS mean difference vs placebo","Model 1 (primary), ITT",11.803
same,"TOTPAR-8, LS mean","Model 2: baseline pain intensity, gender and surgical trauma rating as covariates, ITT",14.797
same,"TOTPAR-8, LS mean difference vs placebo","Model 2, ITT",11.864
same,"TOTPAR-8, Median","Overall, ITT population",19.250
same,"TOTPAR-8, Mean","Overall, ITT population, single oral dose (celecoxib 400 mg)",14.858
same,"TOTPAR-8, Mean","Site 50048, ITT population",15.524
same,"TOTPAR-8, Median","Site 50048, ITT population",20.500
same,"TOTPAR-8, Mean","Site 50053, ITT population",14.021
same,"TOTPAR-8, Median","Site 50053, ITT population",14.625
same,"TOTPAR-8, Mean","Site 50054, ITT population",14.639
same,"TOTPAR-8, Median","Site 50054, ITT population",20.750
same,"Pain relief score A Little (1), %","[…], ITT",(17.6) %
same,"Pain relief score A Lot (3), %","[…], ITT",(31.4) %
same,"Pain relief score Complete (4), %","[…], ITT",(3.9) %
same,"Pain relief score None (0), %","[…], ITT",(17.6) %
same,"Pain relief score Some (2), %","[…], ITT",(29.4) %
same,Time point from which pain relief scores were statistically significantly more favorable than placebo,onward after Time 0,≥ 45 min
